# Measured values taken from US20040009464A1, “Methods for identifying compounds for inhibition of neoplastic lesions, and pharmacetical compositions containing such compounds” (priority 1998, published 2004).
# How the values were obtained:
# [1] = tested on: premalignant lesions in mouse mammary gland organ culture; assay: Mammary gland organ culture model; assay type: cell-based; settings: FIG. 17
# Description: Test compounds identified by the above methods can be tested for antineoplastic activity by their ability to inhibit the incidence of pre-neoplastic lesions in a mammary gland organ culture system. This mouse mammary gland organ culture technique has been successfully used by other investigators to study the effects of known antineoplastic agents such as certain NSAIDs, retinoids, tamoxifen, selenium, and certain natural products, and is useful for validation of the screening method of the present invention.
# For example, female BALB/c mice can be treated with a combination of estradiol and progesterone daily, in order to prime the glands to be responsive to hormones in vitro. The animals are sacrificed, and thoracic mammary glands are excised aseptically and incubated for ten days in growth media supplemented with insulin, prolactin, hydrocortisone, and aldosterone. DMBA (7,12-dimethylbenz(a)anthracene) is added to medium to induce the formation of premalignant lesions Fully developed glands are then deprived of prolactin, hydrocortisone, and aldosterone, resulting in the regression of the glands but not the pre-malignant lesions.
# The test compound is dissolved in DMSO and added to the culture media for the duration of the culture period. At the end of the culture period, the glands are fixed in 10% formalin, stained with alum camine, and mounted on glass slides. The incidence of forming mammary lesions is the ratio of the glands with mammary lesions to […]. The incidence of mammary lesions in test compound treated glands is compared with that of the untreated glands.
# The extent of the area occupied by the mammary lesions can be quantitated by projecting an image of the gland onto a digitation pad. The area covered by the gland is traced on the pad and considered as 100% of the area. The space covered by each of the non-regressed structures is also outlined on the digitization pad and quantitated by the computer.
# Mammary gland organ culture experiment were performed as previously described (Mehta and Moon, Cancer Research, 46: 5832-5835, 1986). […]
# [2] = tested on: PKG in HCT116 colon cancer cells; assay: PKG activity assay on lysates of drug-treated HCT116 cells; assay type: cell-based
# Description: To test the effect of cGMP-specific PDE inhibition on neoplasia containing the β-catenin mutation, HCT116 colon cancer celis were employed. HCT116 is known to contain the β-catenin mutation, but is known not to contain the APC mutation.
# The same procedure is used to grow the HCT116 cells as is used in the SW480 procedure described above. In this experiment, only exisulind and controls were used.
# polyps in APC patients = assay: Clinical prevention trial in patients with adenomatous polyposis coli (APC); assay type: in vivo, human
# Description: The first clinical trial involved patients with APC. using exisulind. In that study, each patient had already had his/her colon removed, except for a small section of colon adjacent the rectum (where the small intestine was attached) to preserve rectal function. However, such a patient commonly forms polyps in the small remaining colonic section, which polyps require periodic removal (e.g., by electrocautery).
# That trial where exisulind was selected was a prevention trial designed to evaluate the anti-neoplastic characteristics of the drug by comparing the cumulative number of new polyps formed over twelve months by the drug and placebo groups. Eligible patients were those who form between 9 and 44 polyps per year. Patients were fully ablated (had all polyps removed) at the start of the study, at the end of 6 months and at the end of 12 months. The study enrolled thirty-four eligible patients. […] Based on the median number of polyps produced in the first six months of the study, patients treated with exisulind developed approximately one-third the number of polyps as patients treated with placebo (median values 9 polyps/year and 26 polyps/year, respectively; p=0.013). […]
# [3] = target: T1, cGMP binding sites of GST-cGB-PDE5 fusion protein (Homo sapiens, UniProt O76074); assay: cGMP binding assay with GST-cGB-PDE5 fusion protein; settings: FIG. 24
# T1 construct: made in house; host or cells: E. coli BL21 (DE3)
# T1 sequence (O76074 46-539 limits assumed): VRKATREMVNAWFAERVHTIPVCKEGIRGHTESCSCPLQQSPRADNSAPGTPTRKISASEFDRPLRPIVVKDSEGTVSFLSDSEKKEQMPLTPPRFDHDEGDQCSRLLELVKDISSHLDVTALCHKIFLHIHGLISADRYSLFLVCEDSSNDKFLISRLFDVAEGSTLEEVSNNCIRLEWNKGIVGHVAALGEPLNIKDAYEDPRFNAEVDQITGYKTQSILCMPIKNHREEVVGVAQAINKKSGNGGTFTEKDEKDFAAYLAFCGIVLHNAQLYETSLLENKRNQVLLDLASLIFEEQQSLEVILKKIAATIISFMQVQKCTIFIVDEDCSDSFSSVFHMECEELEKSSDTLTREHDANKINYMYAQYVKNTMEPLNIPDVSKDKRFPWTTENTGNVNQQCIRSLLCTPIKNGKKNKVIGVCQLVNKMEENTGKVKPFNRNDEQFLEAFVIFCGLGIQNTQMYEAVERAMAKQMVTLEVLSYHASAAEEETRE
smiles,measurement,setting,value
"CC1=C(CC(=O)O)c2cc(F)ccc2/C1=C\c1ccc(S(C)(=O)=O)cc1 [Exisulind, 5-fluoro-2-methyl-1-(p-methylsulfonylbenzylidene)-3-indenylacetic acid]",inhibition of premalignant lesions in mammary gland organ culture,[1],effectively inhibit the formation of premalignant lesions
same,PKG activity relative to control,[2],PKG that was phosphorylated to a greater extent than the corresponding controls
same,"median number of polyps, entire 12 months",polyps in APC patients; entire 12 months of the study,18 polyps/year
same,"median number of polyps, first six months",polyps in APC patients; first six months of the study,9 polyps/year
same,competition with cGMP (2 μM) in binding of GST-cGB-PDE5,[3],None of the PDE5 inhibitors showed any competition
